# From PubChem BioAssay AID364 (The Scripps Research Institute Molecular Screening Center, 2006)
# The source made the active and inactive calls.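 How the source made its calls: active means concentration giving half-maximal inhibition at or below 20 micromolar; inactive means half-maximal concentration above 20 micromolar, or not dose tested.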
# Tested on: Jurkat E6.1 viability, ATP luminescence, 48 h
# Assay: Jurkat cell viability reduction – Jurkat E6.1, NIH starter set, primary screen (AID 364)
row,SMILES,CC50
1,Cc1ccc(NC(=O)CSc2nnc(-c3ccco3)c(-c3ccco3)n2)cc1,1710 nM
2,COc1ccc(OC)c(NS(=O)(=O)c2ccc(N3CCCC3=O)cc2)c1,193 nM
3,CC(=O)/C(C#N)=C1\NC(=O)C(Cc2ccccc2Cl)S1 (configuration not stated),> 20000 nM (inactive)
4,COC(=O)/C(=C1/Oc2cc(C)oc(=O)c2S1)C(F)(F)F,2850 nM
5,c1coc(CNc2ncnc3ccccc23)c1,2400 nM
6,COc1ccc(C2=Nn3c(nnc3-c3ccccc3)SC2)cc1OC,5630 nM
7,CCOC(=O)CSC1=C(C#N)C(c2ccc3c(c2)OCO3)CC(=O)N1 (configuration not stated),6580 nM
8,COc1ccccc1-c1nnc2n1N=C(c1ccc(O)c(O)c1)CS2,58.2 nM
9,N#CC1=C(N)NC(SCc2ccc(F)cc2)=C(C#N)C12CCCCC2,8190 nM
10,COC(=O)Nc1nc2ccc(Sc3ccccc3)cc2[nH]1,574 nM
11,CC(=O)O[C@@]12CO[C@@H]1C[C@H](O)[C@@]1(C)C(=O)[C@H](O)C3=C(C)[C@@H](OC(=O)[C@H](O)[C@@H](NC(=O)OC(C)(C)C)c4ccccc4)C[C@](O)([C@@H](OC(=O)c4ccccc4)[C@H]21)C3(C)C,55.6 nM
12,CCOc1ccc(C2=Nn3c(nnc3-c3ccccc3OC)SC2)cc1,26.7 nM
13,Clc1ccc(-n2ncc3c(NCc4ccco4)ncnc32)cc1,3880 nM
14,CC(=O)O[C@H]1C(=O)[C@]2(C)[C@H]([C@H](OC(=O)c3ccccc3)[C@]3(O)C[C@H](OC(=O)[C@H](O)[C@@H](NC(=O)c4ccccc4)c4ccccc4)C(C)=C1C3(C)C)[C@]1(OC(C)=O)CO[C@@H]1C[C@@H]2O,43.4 nM
15,Cc1ccc2nc(NCc3ccccc3)[nH]c2c1,3240 nM
16,C[C@H]1CCC/C=C/C2C[C@H](O)CC2[C@H](O)/C=C/C(=O)O1 (some centres not stated),368 nM
17,Fc1ccc2[nH]c3c(N4CCN(Cc5ccc6c(c5)OCO6)CC4)ncnc3c2c1,2710 nM
18,N=c1c2c(-c3ccccc3)c(-c3ccccc3)n(Cc3ccccc3)c2ncn1CCCn1ccnc1,19900 nM
19,COc1cccc(NC(=O)CSC2=C(C#N)C(c3ccco3)C3=C(CCCC3=O)N2)c1 (configuration not stated),4730 nM
20,N#CC1=C(SCC(=O)c2ccc(Br)cc2)NC2=C(C(=O)CCC2)C1c1ccco1 (configuration not stated),3050 nM
21,COc1cccc2c1C(=O)c1c(O)c3c(c(O)c1C2=O)C[C@@](O)(C(C)=O)C[C@@H]3O[C@H]1C[C@H](N)[C@H](O)[C@H](C)O1,151 nM

row,SMILES,CC50
1,CC[C@]1(O)CC2CN(CCc3c([nH]c4ccccc34)[C@@](C(=O)OC)(c3cc4c(cc3OC)N(C=O)[C@H]3[C@@](O)(C(=O)OC)[C@H](OC(C)=O)[C@]5(CC)C=CCN6CC[C@]43[C@@H]65)C2)C1 (some centres not stated),< 3 nM
2,CCc1cn([C@H]2C[C@H](O)[C@@H](CO)O2)c(=O)[nH]c1=O,> 20000 nM (inactive)
3,COc1cc([C@@H]2c3cc4c(cc3[C@H](O)[C@H]3COC(=O)[C@H]23)OCO4)cc(OC)c1OC,34.9 nM
4,COc1ccc(C(=O)C(CN2CCCC2)c2ccccc2)cc1 (configuration not stated),7210 nM
5,COC(=O)Nc1nc2ccc(C(=O)c3ccccc3)cc2[nH]1,229 nM
6,CCCSc1ccc2nc(NC(=O)OC)[nH]c2c1,390 nM
7,CC(NC(=O)Nc1nnc(C(F)(F)F)s1)(C(F)(F)F)C(F)(F)F,2590 nM
8,COc1ccc(CCn2c(=N)c(C#N)cc3c(=O)n4ccccc4nc32)cc1,> 20000 nM (inactive)
9,CC(=O)/C(C#N)=C1\NC(=O)C(Cc2ccccc2)S1 (configuration not stated),> 20000 nM (inactive)
10,Cn1c(Cl)cnc1C1CC(=O)c2cc(Cl)ccc2O1 (configuration not stated),7300 nM
11,COc1cc(C2C(C#N)=C(N)Oc3cc(N)ccc32)cc(OC)c1OC (configuration not stated),326 nM
12,CC(=O)OC[C@H]1O[C@@H](n2ncc(=O)[nH]c2=O)[C@H](OC(C)=O)[C@@H]1OC(C)=O,> 20000 nM (inactive)
13,O=c1[nH]c(=O)n([C@H]2C[C@H](O)[C@@H](CO)O2)cc1F,2730 nM
14,CCCOc1ccc2nc(NC(=O)OC)[nH]c2c1,178 nM
15,c1cc2c(cc1C1=Nn3c(nnc3C3CCCCC3)SC1)OCO2,6930 nM
16,COc1cccc(C2=CC(c3ccccc3)n3nnnc3N2)c1 (configuration not stated),1770 nM
17,c1ccc2c(c1)CCN(c1ncnc3c1[nH]c1ccccc13)C2,1560 nM
18,COc1cccc(Cn2c(NCc3ccco3)nc3c2c(=O)n(C)c(=O)n3C)c1,2550 nM
19,CCC(NC(=O)Nc1nnc(C(F)(F)F)s1)(C(F)(F)F)C(F)(F)F,2220 nM
20,COc1ccc2c(c1OC)C(=O)N1c3ccccc3C(=O)N(c3ccccc3F)C21 (configuration not stated),> 20000 nM (inactive)
21,CCCCCOc1ccc(C(=O)NCC(=O)NCC(=O)OCC)cc1,> 20000 nM (inactive)

row,SMILES,CC50
1,CC[C@H]1CN2CCc3cc(OC)c(OC)cc3[C@@H]2C[C@@H]1C[C@H]1NCCc2cc(OC)c(OC)cc21,58.2 nM
2,COc1cccc(N2CCN(c3ncnc4c3[nH]c3ccc(F)cc34)CC2C)c1 (configuration not stated),2270 nM
3,COc1cccc2c1C(=O)c1c(O)c3c(c(O)c1C2=O)C[C@@](O)(C(=O)CO)C[C@@H]3O[C@H]1C[C@H](N)[C@H](O)[C@H](C)O1,261 nM
4,COC(=O)CSc1nnc2n(-c3ccc(OC)cc3)c(=O)c3c4c(sc3n12)CCCCC4,> 20000 nM (inactive)
5,COc1ccc(Nc2cc(C)nc(-n3nc(C)cc3C)n2)cc1,188 nM
6,COc1ccc(C2=Nn3c(nnc3-c3ccccn3)SC2)cc1,4780 nM
7,N#CC1=C2SCC(O)(c3ccccc3)N2C(=O)CC1c1ccccc1 (configuration not stated),806 nM
8,Nc1nc(Cl)nc2c1ncn2[C@H]1C[C@H](O)[C@@H](CO)O1,1810 nM
9,COc1ccc2c(c1OC)C(=O)O[C@@H]2[C@H]1c2c(cc3c(c2OC)OCO3)CCN1C,> 20000 nM (inactive)
10,N#CC1=C(SCC(=O)c2ccc(Cl)cc2)NC2=C(C(=O)CCC2)C1c1ccco1 (configuration not stated),2790 nM
11,Cc1ccc(C(=O)CSC2=C(C#N)C(c3ccco3)C3=C(CCCC3=O)N2)cc1 (configuration not stated),2400 nM
12,CC(C)NCc1c(O)c(Br)cc2oc3c(c12)CCCC3,> 20000 nM (inactive)
13,Cc1cccc(-c2nnc3n2N=C(c2ccc(Br)cc2)CS3)c1,> 20000 nM (inactive)
14,CCN(CC)c1ccc(-c2nn3c(-c4cccnc4)nnc3s2)cc1,3270 nM
15,CC[C@]1(O)C[C@@H]2CN(CCc3c([nH]c4ccccc34)[C@@](C(=O)OC)(c3cc4c(cc3OC)N(C)[C@H]3[C@@](O)(C(=O)OC)[C@H](OC(C)=O)[C@]5(CC)C=CCN6CC[C@]43[C@@H]65)C2)C1,13.6 nM
16,CC1(c2ccccc2)NCCN2C(=O)CSC21 (configuration not stated),> 20000 nM (inactive)
17,N#CC1=C(SCC(=O)c2ccccc2)NC2=C(C(=O)CCC2)C1c1ccco1 (configuration not stated),1280 nM
18,COc1cccc2c(=O)c(SC(F)(F)C(F)C(F)(F)F)c(C)[nH]c12 (configuration not stated),5130 nM
19,CO[C@H]1C[C@@H]2CC[C@@H](C)[C@@](O)(O2)C(=O)C(=O)N2CCCC[C@H]2C(=O)O[C@H]([C@H](C)C[C@@H]2CC[C@@H](O)[C@H](OC)C2)CC(=O)[C@H](C)C=C(C)[C@@H](O)[C@@H](OC)C(=O)[C@H](C)C[C@H](C)C=CC=CC=C1C,> 20000 nM (inactive)
20,CCc1nc(N)nc(N)c1-c1ccc(Cl)cc1,2600 nM
